Measurements from PubChem BioAssay AID1745844 (Carcinogenic Potency Database (CPDB), 2022).
Calls of active or inactive are those of the source. No rule for the calls is given here.

System: rodent lifetime carcinogenesis bioassay, tumor incidence TD50
Assay: carcinogenic potency in animals, long-term in vivo studies, CPDB compilation (AID 1745844)
[1] = mouse, strain B6AKF1, females, oral dosing, site: any site (literature study), lesion: several types, types named in the paper, dosed 76 weeks, study length 76 weeks
[2] = mouse, strain B6AKF1, females, oral dosing, site: liver, lesion: hepatoma, dosed 76 weeks, study length 76 weeks
[3] = mouse, strain B6AKF1, females, oral dosing, site: lung, lesion: adenoma, dosed 76 weeks, study length 76 weeks
[4] = mouse, strain B6AKF1, males, oral dosing, site: any site (literature study), lesion: several types, types named in the paper, dosed 76 weeks, study length 76 weeks
[5] = mouse, strain B6AKF1, males, oral dosing, site: liver, lesion: hepatoma, dosed 76 weeks, study length 76 weeks
[6] = mouse, strain B6AKF1, males, oral dosing, site: lung, lesion: adenoma, dosed 76 weeks, study length 76 weeks
[7] = mouse, strain B6C3F1, females, oral dosing, site: liver, lesion: hepatoma, dosed 76 weeks, study length 76 weeks
[8] = mouse, strain B6C3F1, males, oral dosing, site: any site (literature study), lesion: several types, types named in the paper, dosed 76 weeks, study length 76 weeks
[9] = mouse, strain B6C3F1, males, oral dosing, site: liver, lesion: hepatoma, dosed 76 weeks, study length 76 weeks

C=C(C)C(=O)Nc1ccc(Cl)c(Cl)c1
carcinogen call [1]: negative (inactive)
carcinogen call [2]: negative (inactive)
carcinogen call [3]: negative (inactive)
TD50 [4]: 49.1 mg/kg/day (inactive)
TD50 [5]: 27.1 mg/kg/day (inactive)
carcinogen call [6]: negative (inactive)
carcinogen call (mouse, strain B6C3F1, females, oral dosing, site: any site (literature study), lesion: one or several types, types not named, dosed 76 weeks, study length 76 weeks): negative (inactive)
carcinogen call [7]: negative (inactive)
carcinogen call (mouse, strain B6C3F1, females, oral dosing, site: lung, lesion: several types, types named in the paper, dosed 76 weeks, study length 76 weeks): negative (inactive)
TD50 [8]: 5.39 mg/kg/day (inactive)
TD50 [9]: 15.2 mg/kg/day (inactive)
TD50 (mouse, strain B6C3F1, males, oral dosing, site: lung, lesion: adenoma, dosed 76 weeks, study length 76 weeks): 23.7 mg/kg/day (inactive)

Cc1c(N)nc(C)c2c1[nH]c1ccccc12
TD50 (mouse, strain CDF1, females, in feed, site: liver, lesion: hepatocellular carcinoma, dosed 88 weeks, study length 88 weeks): 29.6 mg/kg/day
TD50 (mouse, strain CDF1, females, in feed, site: liver, lesion: several types, types named in the paper, dosed 88 weeks, study length 88 weeks): 25 mg/kg/day
TD50 (mouse, strain CDF1, males, in feed, site: liver, lesion: hepatocellular carcinoma, dosed 88 weeks, study length 88 weeks): 112 mg/kg/day
TD50 (mouse, strain CDF1, males, in feed, site: liver, lesion: several types, types named in the paper, dosed 88 weeks, study length 88 weeks): 109 mg/kg/day
TD50 (rat, strain F344/DuCrj, females, in feed, site: liver, lesion: hepatocellular carcinoma, dosed 52 weeks, study length 52 weeks): 0.577 mg/kg/day
TD50 (rat, strain F344/DuCrj, males, in feed, site: liver, lesion: hepatocellular carcinoma, dosed 52 weeks, study length 52 weeks): 0.574 mg/kg/day

CN(C)C(=O)NC1CC2CC1C1CCCC21 (centres undefined)
carcinogen call [1]: negative (inactive)
carcinogen call [2]: negative (inactive)
carcinogen call [3]: negative (inactive)
carcinogen call [4]: negative (inactive)
carcinogen call [5]: negative (inactive)
carcinogen call [6]: negative (inactive)
TD50 (mouse, strain B6C3F1, females, oral dosing, site: any site (literature study), lesion: several types, types named in the paper, dosed 76 weeks, study length 76 weeks): 1230 mg/kg/day (inactive)
carcinogen call [7]: negative (inactive)
TD50 (mouse, strain B6C3F1, females, oral dosing, site: lung, lesion: adenoma, dosed 76 weeks, study length 76 weeks): 1230 mg/kg/day (inactive)
TD50 [8]: 259 mg/kg/day (inactive)
TD50 [9]: 359 mg/kg/day (inactive)
carcinogen call (mouse, strain B6C3F1, males, oral dosing, site: lung, lesion: several types, types named in the paper, dosed 76 weeks, study length 76 weeks): negative (inactive)

CNCc1ccc(CSCCNC(=NCC(O)c2ccc(O)cc2)NS(C)(=O)=O)o1 (centres undefined)
carcinogen call (rat, strain Jcl:SD, females, by gavage, site: liver, lesion: one or several types, types not named, dosed 52 weeks, study length 52 weeks): negative (inactive)
carcinogen call (rat, strain Jcl:SD, females, by gavage, site: liver, lesion: one or several types, types not named, dosed 52 weeks, study length 56 weeks): negative (inactive)
carcinogen call (rat, strain Jcl:SD, males, by gavage, site: liver, lesion: one or several types, types not named, dosed 52 weeks, study length 52 weeks): negative (inactive)
carcinogen call (rat, strain Jcl:SD, males, by gavage, site: liver, lesion: one or several types, types not named, dosed 52 weeks, study length 56 weeks): negative (inactive)

OCCN(CCO)C(=S)S
TD50 (mouse, strain B6AKF1, females, oral dosing, site: any site (literature study), lesion: several types, types named in the paper, dosed 79 weeks, study length 79 weeks): 138 mg/kg/day
TD50 (mouse, strain B6AKF1, females, oral dosing, site: liver, lesion: hepatoma, dosed 79 weeks, study length 79 weeks): 298 mg/kg/day
TD50 (mouse, strain B6AKF1, females, oral dosing, site: lung, lesion: adenoma, dosed 79 weeks, study length 79 weeks): 850 mg/kg/day
TD50 (mouse, strain B6AKF1, males, oral dosing, site: any site (literature study), lesion: several types, types named in the paper, dosed 79 weeks, study length 79 weeks): 45.6 mg/kg/day
TD50 (mouse, strain B6AKF1, males, oral dosing, site: liver, lesion: hepatoma, dosed 79 weeks, study length 79 weeks): 41.5 mg/kg/day
TD50 (mouse, strain B6C3F1, females, oral dosing, site: any site (literature study), lesion: several types, types named in the paper, dosed 79 weeks, study length 79 weeks): 48.4 mg/kg/day
TD50 (mouse, strain B6C3F1, females, oral dosing, site: liver, lesion: hepatoma, dosed 79 weeks, study length 79 weeks): 56.4 mg/kg/day
TD50 (mouse, strain B6C3F1, females, oral dosing, site: lung, lesion: adenoma, dosed 79 weeks, study length 79 weeks): 1080 mg/kg/day
TD50 (mouse, strain B6C3F1, males, oral dosing, site: any site (literature study), lesion: several types, types named in the paper, dosed 79 weeks, study length 79 weeks): 27.8 mg/kg/day
TD50 (mouse, strain B6C3F1, males, oral dosing, site: liver, lesion: hepatoma, dosed 79 weeks, study length 79 weeks): 34.5 mg/kg/day
